Measured values: patent publication US8609812B2, “Use of β-2-microglobulin to assess glomerular alterations and damage in the kidney” (Novartis AG, priority 2007, dated 2013)

Test system: kidney
Test: rat in vivo studies, histopathology of kidney
Description: Results of in vivo studies and histopathology. All 10 rat in vivo studies were successfully conducted.
In FIG. 2, the distributions of grades of the histopathology assessment are shown. The predominance of grade 1 and grade 2 findings and the absence of grade 5 lesions indicate that the goal of inducing mainly mild nephrotoxicity has been achieved. The considerable number of grade 1 and some grade 2 findings in the vehicle-dosed and the hepatotoxicant-dosed animals indicates the level of sensitivity of the histopathology assessment performed in this project. No significant dose-dependent nephrotoxicity was induced by the hepatotoxicants. In FIG. 3 a detailed list of all reported localized lesions, including the number of occurrences for each grade, separated by nephrotoxicant-dosed animals and the control animals (vehicle-dosed and hepatotoxicant-dosed) is shown. Seventy-five different localized finding were observed.
The different types of lesions were usually not observed in an isolated fashion, but typically in a highly correlated manner representing different molecular processes. In FIG. 4, all histopathology findings are shown for the cisplatin study. […] In addition, a logical sequence of molecular processes along the dose- and time-ordered animals can be observed. […]

SMILES	histopathology findings in the kidney (ANIT study, vehicle or different doses)	renal histopathology findings, sequence of processes (rat, in vivo)
S=C=Nc1cccc2ccccc12 [ANIT, alpha-naphtylisothiocyanate]	not in the kidney	
N.N.[Cl][Pt][Cl] [cisplatin]		Necrosis as a consequence of damage is seen, and then regeneration processes such as basophilia and mitosis are seen
